The structures appear in SMILES notation.

Broadly, the melting point is the temperature, or range, at which the solid turns liquid.

Turning to `C=CC(c1cn(-c2ccccc2)nc1OCc1ccc(OCc2nc(-c3ccco3)oc2C)c(OC)c1)n1cncn1` (centres unmarked) [Example 110, 1-(1-{3-[(4-{[2-(2-furyl)-5-methyl-1,3-oxazol-4-yl]methoxy}-3-methoxybenzyl)oxy]-1-phenyl-1H-pyrazol-4-yl}-2-propenyl)-1H-1,2,4-triazole], the melting point lay within 115 to 116 °C.

Compound `COc1cc(COc2nn(-c3ccccc3)cc2/C=C/c2cscn2)ccc1OCc1nc(-c2ccco2)oc1C` [Example 111 (E form), 2-(2-furyl)-4-({2-methoxy-4-[({1-phenyl-4-[(E)-2-(1,3-thiazol-4-yl)ethenyl]-1H-pyrazol-3-yl}oxy)methyl]phenoxy)methyl)-5-methyl-1,3-oxazole] showed a melting point of 136 to 137 °C.

`COc1cc(COc2nn(-c3ccccc3)cc2/C=C\c2cscn2)ccc1OCc1nc(-c2ccco2)oc1C` [Example 111 (Z form), 2-(2-furyl)-4-({2-methoxy-4-[({1-phenyl-4-[(Z)-2-(1,3-thiazol-4-yl)ethenyl]-1H-pyrazol-3-yl}oxy)methyl]phenoxy}methyl)-5-methyl-1,3-oxazole] yielded a melting point of 137 to 138 °C.

Compound `COc1cc(COc2nn(-c3ccccc3)cc2/C=C/c2ccccn2)ccc1OCc1nc(-c2ccco2)oc1C` [Example 113, 2-((E)-2-{3-[(4-{[2-(2-furyl)-5-methyl-1,3-oxazol-4-yl]methoxy}-3-methoxybenzyl)oxy]-1-phenyl-1H-pyrazol-4-yl}ethenyl)pyridine] had a melting point of 135 to 136 °C.

Consider `COc1cc(COc2nn(-c3ccccc3)cc2/C=C/c2cnco2)ccc1OCc1nc(-c2ccco2)oc1C` [Example 114, 2-(2-furyl)-4-({2-methoxy-4-[({4-[(E)-2-(1,3-oxazol-5-yl)ethenyl]-1-phenyl-1H-pyrazol-3-yl}oxy)methyl]phenoxy}methyl)-5-methyl-1,3-oxazole], for which the melting point lay in the range of 137 to 138 °C.

The compound `CCCc1nnc(/C=C/c2cn(-c3ccccc3)nc2OCc2ccc(OCc3nc(-c4ccco4)oc3C)c(OC)c2)o1` [Example 115, 2-((E)-2-{3-[(4-{[2-(2-furyl)-5-methyl-1,3-oxazol-4-yl]methoxy}-3-methoxybenzyl)oxy]-1-phenyl-1H-pyrazol-4-yl}ethenyl)-5-propyl-1,3,4-oxadiazole] gave a melting point of 172 to 173 °C.

As to `COc1cc(COc2nn(-c3ccccc3)cc2/C=C/c2nnco2)ccc1OCc1nc(-c2ccco2)oc1C` [Example 118, 2-((E)-2-{3-[(4-{[2-(2-furyl)-5-methyl-1,3-oxazol-4-yl]methoxy}-3-methoxybenzyl)oxy]-1-phenyl-1H-pyrazol-4-yl}ethenyl)-1,3,4-oxadiazole], the melting point is 162 to 163 °C.

Take `COc1cc(COc2nn(-c3ccccc3)cc2CCc2cscn2)ccc1OCc1nc(-c2ccco2)oc1C` [Example 119, 2-(2-furyl)-4-({2-methoxy-4-[({1-phenyl-4-[2-(1,3-thiazol-4-yl)ethyl]-1H-pyrazol-3-yl}oxy)methyl]phenoxy}methyl)-5-methyl-1,3-oxazole]: the melting point lay in the range of 127 to 128 °C.

As to `CCCc1nnc(Cc2cn(-c3ccccc3)nc2OCc2ccc(OCc3nc(-c4ccco4)oc3C)c(OC)c2)o1` [Example 120, 2-({3-[(4-{[2-(2-furyl)-5-methyl-1,3-oxazol-4-yl]methoxy}-3-methoxybenzyl)oxy]-1-phenyl-1H-pyrazol-4-yl}methyl)-5-propyl-1,3,4-oxadiazole], the melting point lay within 102 to 103 °C.

In turn, `COc1cc(COc2nn(-c3ccccc3)cc2CC2=NCCO2)ccc1OCc1nc(-c2ccco2)oc1C` [Example 121, 4-{[4-({[4-(4,5-dihydro-1,3-oxazol-2-ylmethyl)-1-phenyl-1H-pyrazol-3-yl]oxy}methyl)-2-methoxyphenoxy]methyl}-2-(2-furyl)-5-methyl-1,3-oxazole] registered a melting point of 95 to 96 °C.

`COc1cc(COc2nn(-c3ccccc3)cc2Cn2cncn2)ccc1OCc1nc(-c2ccco2)oc1C` [Example 122, 1-({3-[(4-{[2-(2-furyl)-5-methyl-1,3-oxazol-4-yl]methoxy}-3-methoxybenzyl)oxy]-1-phenyl-1H-pyrazol-4-yl}methyl)-1H-1,2,4-triazole] registered a melting point of 149 to 150 °C.

As to `CCCc1nnc(CCc2cc(OCc3ccc(OCc4nc(-c5ccccc5)oc4C)c(OC)c3)nn2-c2ccccc2)o1` [Example 123, 2-{2-[3-({3-methoxy-4-[(5-methyl-2-phenyl-1,3-oxazol-4-yl)methoxy]benzyl}oxy)-1-phenyl-1H-pyrazol-5-yl]ethyl}-5-propyl-1,3,4-oxadiazole], the melting point lay within 85 to 86 °C.

Take `CCCc1noc(/C=C/c2cn(-c3ccccc3)nc2OCc2ccc(OCc3nc(-c4ccco4)oc3C)c(OC)c2)n1` [Example 124, 5-((E)-2-{3-[(4-{[2-(2-furyl)-5-methyl-1,3-oxazol-4-yl]methoxy}-3-methoxybenzyl)oxy]-1-phenyl-1H-pyrazol-4-yl}ethenyl)-3-propyl-1,2,4-oxadiazole]: the melting point is 192 to 193 °C.

`COc1cc(COc2nn(-c3ccccc3)cc2/C=C/c2nnc(C)o2)ccc1OCc1nc(-c2ccco2)oc1C` [Example 125, 2-((E)-2-{3-[(4-{[2-(2-furyl)-5-methyl-1,3-oxazol-4-yl]methoxy}-3-methoxybenzyl)oxy]-1-phenyl-1H-pyrazol-4-yl}ethenyl)-5-methyl-1,3,4-oxadiazole] displayed a melting point of 186 to 187 °C.

Consider `CCc1nnc(/C=C/c2cn(-c3ccccc3)nc2OCc2ccc(OCc3nc(-c4ccco4)oc3C)c(OC)c2)o1` [Example 126, 2-ethyl-5-((E)-2-{3-[(4-{[2-(2-furyl)-5-methyl-1,3-oxazol-4-yl]methoxy}-3-methoxybenzyl)oxy]-1-phenyl-1H-pyrazol-4-yl}ethenyl)-1,3,4-oxadiazole], for which the melting point lay in the range of 183 to 184 °C.

Take `CCCc1nnc(/C=C/c2cn(-c3ccccc3)nc2OCc2ccc(OCc3nc(-c4ccco4)oc3C)c(OC)c2)o1` [Example 127, 2-((E)-2-{3-[(4-{[2-(2-furyl)-5-methyl-1,3-oxazol-4-yl]methoxy}-3-methoxybenzyl)oxy]-1-phenyl-1H-pyrazol-4-yl}ethenyl)-5-propyl-1,3,4-oxadiazole]: the melting point lay within 165 to 166 °C.

Take `COc1cc(COc2nn(-c3ccccc3)cc2/C=C/[S+](C)[O-])ccc1OCc1nc(-c2ccco2)oc1C` (centres unmarked) [Example 128 (E form), 2-(2-furyl)-4-({2-methoxy-4-[({4-[(E)-2-(methylsulfinyl)ethenyl]-1-phenyl-1H-pyrazol-3-yl}oxy)methyl]phenoxy}methyl)-5-methyl-1,3-oxazole]: the melting point lay within 156 to 157 °C.

Compound `COc1cc(COc2nn(-c3ccccc3)cc2/C=C\[S+](C)[O-])ccc1OCc1nc(-c2ccco2)oc1C` (centres unmarked) [Example 128 (Z form), 2-(2-furyl)-4-({2-methoxy-4-[({4-[(Z)-2-(methylsulfinyl)ethenyl]-1-phenyl-1H-pyrazol-3-yl}oxy)methyl]phenoxy}methyl)-5-methyl-1,3-oxazole] showed a melting point of 180 to 181 °C.

`COc1cc(COc2nn(-c3ccccc3)cc2/C=C/S(C)(=O)=O)ccc1OCc1nc(-c2ccco2)oc1C` [Example 130, 2-(2-furyl)-4-({2-methoxy-4-[({4-[(E)-2-(methylsulfonyl)ethenyl]-1-phenyl-1H-pyrazol-3-yl}oxy)methyl]phenoxy}methyl)-5-methyl-1,3-oxazole]: the melting point was 152 to 153 °C.

Take `COc1cc(COc2nn(-c3ccccc3)cc2/C=C\S(C)(=O)=O)ccc1OCc1nc(-c2ccco2)oc1C` [Example 131, 2-(2-furyl)-4-({2-methoxy-4-[({4-[(Z)-2-(methylsulfonyl)ethenyl]-1-phenyl-1H-pyrazol-3-yl}oxy)methyl]phenoxy}methyl)-5-methyl-1,3-oxazole]: the melting point is 158 to 159 °C.

As to `CCCc1nnc(/C=C/c2cn(Cc3ccccc3)nc2OCc2ccc(OCc3nc(-c4ccco4)oc3C)c(OC)c2)o1` [Example 132, 2-((E)-2-{1-benzyl-3-[(4-{[2-(2-furyl)-5-methyl-1,3-oxazol-4-yl]methoxy}-3-methoxybenzyl)oxy]-1H-pyrazol-4-yl}ethenyl)-5-propyl-1,3,4-oxadiazole], the melting point lay in the range of 146 to 147 °C.

Consider `CCCc1nnc(/C=C/c2nc(-c3ccccc3)oc2COc2ccc(OCc3nc(-c4ccccc4)oc3C)cc2)o1` [Example 133, 2-{(E)-2-[5-({4-[(5-methyl-2-phenyl-1,3-oxazol-4-yl)methoxy]phenoxy}methyl)-2-phenyl-1,3-oxazol-4-yl]ethenyl}-5-propyl-1,3,4-oxadiazole], for which the melting point is 119 to 120 °C.

Consider `CCOC(=O)/C=C/c1cc(OCc2ccc(OCc3nc(-c4ccco4)oc3C)c(OC)c2)nn1-c1ccccc1` [Example 135, ethyl (2E)-3-{3-[(4-{[2-(2-furyl)-5-methyl-1,3-oxazol-4-yl]methoxy}-3-methoxybenzyl)oxy]-1-phenyl-1H-pyrazol-5-yl}-2-propenoate], for which the melting point was in the range of 127 to 128 °C.

With `COc1cc(COc2cc(/C=C/C(=O)O)n(-c3ccccc3)n2)ccc1OCc1nc(-c2ccco2)oc1C` [Example 136, (2E)-3-{3-[(4-{[2-(2-furyl)-5-methyl-1,3-oxazol-4-yl]methoxy}-3-methoxybenzyl)oxy]-1-phenyl-1H-pyrazol-5-yl}-2-propenoic acid], the melting point was in the range of 191 to 192 °C.

Compound `CCCc1nnc(/C=C/c2cc(OCc3ccc(OCc4nc(-c5ccco5)oc4C)c(OC)c3)nn2-c2ccccc2)o1` [Example 138, 2-((E)-2-{3-[(4-{[2-(2-furyl)-5-methyl-1,3-oxazol-4-yl]methoxy}-3-methoxybenzyl)oxy]-1-phenyl-1H-pyrazol-5-yl}ethenyl)-5-propyl-1,3,4-oxadiazole] yielded a melting point of 107 to 108 °C.

The compound `COc1cc(COc2cc(/C=C/c3cscn3)n(-c3ccccc3)n2)ccc1OCc1nc(-c2ccco2)oc1C` [Example 139, 2-(2-furyl)-4-({2-methoxy-4-[({1-phenyl-5-[(E)-2-(1,3-thiazol-4-yl)ethenyl]-1H-pyrazol-3-yl}oxy)methyl]phenoxy}methyl)-5-methyl-1,3-oxazole] showed a melting point of 154 to 155 °C.
